Assay results as given in patent publication US4443607A, “1(2H)-Isoquinolone compounds and acid addition salts thereof” (priority 1981, dated 1984).
Several values for one entry are separate records, joined by “and”; a condition that tells them apart may be missing. Equal entries are not always repeated. Structures can show the parent of a compound that is named as a salt.

Assays:
stress ulcer [1] = experiment: Stress Ulcer (2), fasted rats in stress cage dipped in water; format: in vivo, Wistar male rats; conditions: for Percent Inhibition / Ulcerous Index: 25 mg/kg oral, fasted 18 h; for Ulcerous Index: 7 h water immersion at 23° C., 7 rats, mean ± SD
Experimental: The test compound was administered orally to Wistar male rats (body weight, 180 to 200 g) which fasted for 18 hours before testing. 30 minutes thereafter, stress was loaded to the rats in a stress cage by dipping the cage into water at 23° C. to the level of the xiphisternum of rats. After leaving the rats in water for 7 hours, the rats were sacrificed and the stomach was extracted. The stomach was then worked up in the same manner as above to determine the ulcerous index.

[2] = tested on: blood flow in stomach mucous membrane; experiment: Recovery activity on blood flow decrease in stomach mucous membrane by blood drawing; format: in vivo, Wistar male rats; conditions: 10 mg/kg intravenous
Experimental: Wistar male rats (body weight, 250 to 280 g) fasted for 24 hours and the blood flow in stomach mucous membrane was determined by the aminopyrin clearance method as described above under urethane anesthesia. After determination of blood flow, a blood sample was drawn in an amount equivalent to 3% of the body weight and, 5 minutes thereafter, the blood sample was reinstated. The blood flow was then determined at an interval of 15 minutes. The test compound was administered intravenously 15 minutes after the blood drawing.

gastric secretion = experiment: Gastric secretion inhibitory activity in pylorus-ligated rats; format: in vivo, Wistar male rats; conditions: for Percent Inhibition (gastric juice) / Percent Inhibition (output secretion) / Amount of Gastric Juice / Amount of Output Secretion: 25 mg/kg into duodenum, 5 h; for Amount of Gastric Juice / Amount of Output Secretion: 10 rats, mean ± SD
Experimental: Five hours after the administration, the rats were sacrificed and gastric juice was collected. The volume and the pH value of the gastric juice and the degree of acid secretion were then determined.

aspirin-induced ulcer = experiment: Aspirin Ulcer in pylorus-ligated rats; format: in vivo, Wistar male rats; conditions: for Percent Inhibition / Ulcerous Index: aspirin 100 mg/kg oral; for Ulcerous Index: mean ± SE
Experimental: The pylorus of Wistar male rats (body weight, 230 to 250 g) which fasted for 24 hours was ligated and, immediately thereafter, the test compound was administered into the duodenum. 15 hours thereafter, acetylsalicylic acid (Aspirin) was administered orally at a dose of 100 mg/kg. Seven hours after administration of acetylsalicylic acid, the rats were sacrificed and the gastric juice was collected. the stomach was then worked up in the same manner as above to determine the ulcerous index.

blood pressure = experiment: Anti-hypertensive activity in anesthetized cats; format: in vivo; conditions: 5 to 10 mg/kg via femoral vein; urethane anesthesia
Experimental: Cats weighing 3 to 5 kg were anesthetized by intraperitoneal administration of urethane at a dose of 1.5 g/kg. The test compound was administered through a catheter into a femoral vein and the blood pressure was determined by a pressure transducer through a catheter inserted into the femoral artery.

stress ulcer [3] = experiment: Stress Ulcer (1), water-dipping restriction stress, non-fasted rats tied with steel wire; format: in vivo, Wistar male rats; conditions: 50 mg/kg oral
Experimental: The test compound was administered orally to Wistar male rats (body weight, 200 to 230 g) and 30 minutes thereafter the rats were tied up with a steel wire and dipped in water at 23° C. in a tank to the level of the xiphisternum of rats. After leaving the rats in water for 7 hours, the rats were sacrificed and the stomach was extracted. 10 ml of a 1% formalin solution was injected into the stomach cavity and the stomach was dipped in a 1% formalin solution for 15 minutes to semi-harden the stomach.

[4] = tested on: stomach mucous membrane blood flow; experiment: Blood flow increasing activity on stomach mucous membrane (aminopyrin clearance method); format: in vivo, Wistar male rats; conditions: 3 mg/kg intravenous
Experimental: The cardia and pylorus of Wistar male rats (body weight, 250 to 300 g) which fasted 16 hours before abdominal section were ligated under urethane anesthesia, and a cannula was inserted into the preventriculus. In order to keep the stomach in normal state, the cannula was fixed externally and the incised abdomen was closed. Separately, a cannula filed with heparin was inserted into carotid artery.
After operation, the inside of stomach was thoroughly washed with warm physiological saline solution, and 2 ml of a gastric juice (prepared by adjusting a 5% aqueous solution of mannitol to a pH 3.5 with 0.15 N hydrochloric acid, hereinafter the same) was poured into the stomach. Then, aminopyrin was administered via femoral vein at a dose of 30 mg/kg and 30 minutes thereafter aminopyrin was continuously administered at a rate of 6.6 mg/kg/hour. 45 minutes after the commencement of continuous administration of aminopyrin, 2 ml of the gastric juice warmed at 37° C. was poured into the stomach and collected after 15 minutes.
The collection of gastric juice was conducted at 15 minute intervals and 2 ml of the gastric juice was poured into the stomach between the collections. The total volume of gastric juice collected was 5 ml; 2 ml of the gastric juice was first drawn by syringe pump, 2 ml of the gastric juice was poured into the stomach and then drawn, and finally 1 ml of gastric juice was poured into the stomach and then drawn. 2 ml of the gastric juice drawn (5 ml) was presented to quantitative determination.
Sixty minutes after the commencement of continuous administration of aminopyrin, 0.5 ml of blood was drawn from the carotid artery. Thereafter, 0.5 ml of blood was drawn twice (intermediate and end points of the continuous administration of aminopyrin).
The test compound was administered intravenously immediately after the third collection of gastric juice. […]
Then, the amount of aminopyrin in the blood sample and the gastric juice was determined quantitatively and the volume of blood flow in the stomach mucous membrane per gram of the stomach tissue per minute was calculated.

Compound | Percent Inhibition (stress ulcer [1]) | Ulcerous Index (stress ulcer [1]) | Percent Inhibition (gastric juice) (gastric secretion) | Percent Inhibition (output secretion) (gastric secretion) | Amount of Gastric Juice (gastric secretion) | Amount of Output Secretion (gastric secretion) | duration of blood pressure lowering activity (blood pressure) | inhibition of ulcer generation (in words) (stress ulcer [3]) | further results
CC(N)Cn1cc(-c2ccccc2)c2ccccc2c1=O.O=C(O)/C=C\C(=O)O (stereo not shown) [Compound C, 2-(2-aminopropyl)-4-phenyl-1(2H)-isoquinolone maleate] | 52.8% | 14.6 ± 8.70 mm | 54.2% | 56.3% | 1.54 ± 0.58 mL | 126.0 ± 40.42 μ Eq. |  |  | stress ulcer inhibitory activity (in words) (stress ulcer [1]; compared with propantheline bromide): substantially equivalent to that of propantheline bromide; recovery activity on blood flow decrease (in words) [2]: significant recovery activity on blood flow decrease in stomach mucous membrane by blood drawing; Blood Flow in Mucous Membrane, 15 min. ([2]; 15 min., 3 rats, mean ± SD): 88.4 ± 36.9%; Blood Flow in Mucous Membrane, 30 min. ([2]; 30 min., 3 rats, mean ± SD): 92.7 ± 23.5%; Blood Flow in Mucous Membrane, 45 min. ([2]; 45 min., 3 rats, mean ± SD): 98.2 ± 10.2%; Blood Flow in Mucous Membrane, 60 min. ([2]; 60 min., 3 rats, mean ± SD): 101.4 ± 8.8%; Blood Flow in Mucous Membrane, 0 ([2]; time 0 (baseline), 3 rats): 100%; gastric secretion inhibitory activity (in words) (gastric secretion; compared with propantheline bromide and Cimetidine): substantially equivalent to that of propantheline bromide but higher than that of Cimetidine
CN/C(=N/CCSCc1nc[nH]c1C)NC#N [Cimetidine] |  |  | 32.7% | 52.6% | 2.26 ± 0.85 mL | 136.6 ± 74.19 μ Eq. |  |  | 
C=CCN(CC=C)C(C)Cn1cc(-c2ccccc2)c2ccccc2c1=O (stereo not shown) [Compound A, 2-(2-N,N-diallylaminopropyl)-4-phenyl-1(2H)-isoquinolone maleate] |  |  |  |  |  |  | more than 2 hours | inhibit the ulcer generation caused by water-dipping restriction stress | Percent Inhibition (aspirin-induced ulcer; 10 mg/kg i.d.): 29.41%; Ulcerous Index (aspirin-induced ulcer; 10 mg/kg i.d.): 42.28 ± 2.56 mm; Percent Inhibition (aspirin-induced ulcer; 25 mg/kg i.d.): 42.98%; Ulcerous Index (aspirin-induced ulcer; 25 mg/kg i.d.): 34.15 ± 4.37 mm; Percent Inhibition (aspirin-induced ulcer; 50 mg/kg i.d.): 57.52%; Ulcerous Index (aspirin-induced ulcer; 50 mg/kg i.d.): 25.44 ± 3.41 mm; inhibition of aspirin-induced ulcer (in words) (aspirin-induced ulcer; 10, 25, 50 mg/kg i.d.): inhibits the aspirin-induced ulcer at dose levels of 10, 25, 50 mg/kg, with dependency upon dose; Percent Inhibition (stress ulcer [3]; 7 h water immersion at 23° C.): 62.2% and 75.5%; Ulcerous Index (stress ulcer [3]; 7 h water immersion at 23° C., 6 rats, mean ± SD): 10.5 ± 6.22 mm and 6.8 ± 3.19 mm; time of maximum percent increase in blood flow [4]: 30 min; stomach mucous membrane blood flow increasing activity (in words) ([4]; 15, 30 and 45 minutes after administration): significance increasing activity on the stomach mucous membrane blood flow; percent increase in blood flow (maximum) ([4]; 30 minutes): about 50%
C=CCN(CC=C)CC(C)Cn1cc(-c2ccccc2)c2ccccc2c1=O (stereo not shown) [Compound B, 2-(3-N,N-diallylamino-2-methylpropyl)-4-phenyl-1(2H)-isoquinolone hydrochloride] |  |  |  |  |  |  | more than 2 hours | inhibit the ulcer generation caused by water-dipping restriction stress | 
CC(C)[N+](C)(CCOC(=O)C1c2ccccc2Oc2ccccc21)C(C)C [Propantheline Bromide] | 51.9% | 14.9 ± 10.67 mm | 56.5% | 58.8% | 1.46 ± 0.63 mL | 118.8 ± 63.51 μ Eq. |  |  | 
